This is an account of results in US20230192700A1, “PYRAZOLOPYRAZINES ACTING ON CANCERS VIA INHIBITION OF CDK12” (Bayer Aktiengesellschaft, priority 2020, published 2023).

Where two headings read alike, the source gives them in different places.

The test system of assay [1] is BRCA1 mRNA expression in MDA-MB-231 cells. Put plainly: qRT-PCR assay: inhibition of BRCA1 mRNA expression in MDA-MB-231 cells. Particulars: 24 h exposure, BRCA1 mRNA normalised to GAPDH, median, read-out: RTqPCR-MDA-MB-231 IC50 [mol/l] BRCA1 (median). In kind it is cell-based, human. How it is done:
3. qRT-PCR Assay: BRCA1, ATR, MCL1 in MDA-MB-231, CAL-120
Tissue cultured human MDA-MB-231 human breast cancer cells were plated in 500 microL per well at 200,000 cells/well in a 24 well microtiter plate. After 24 h, the cells were exposed continuously for 24 h to test substances (substances were added with Tecan HP D300 Dispenser). RNA was prepared using Qiagen RNeasy MiniKit (#74106), RNA was quantified using a NanoDrop Equipment, and 600 nano gamms of RNA was coverted to cDNA using a SuperScript VILO kit (Thermofisher #11755050) followed by qPCR amplification. BRCA1 and ATR gene expression was measured by RT-qPCR and normalised to GAPDH housekeeping gene expression. qPCR primer sets have been purchased from Thermo Fisher Scientific/Applied Biosystems: BRCA1, # Hs 01556193; ATR, #Hs 00992123; GAPDH, #Hs 03929097.

The target in another assay is T1, CDK2/CyclinE (Homo sapiens, UniProt P24941).
T1 construct: GST; purchased ProQinase GmbH (Freiburg, Germany); host or cells: insect cells (Sf9)
Put plainly: CDK2/CycE kinase assay (TR-FRET). In kind it is biochemical. Particulars: 2 mM ATP (high ATP); median; read-out: CDK2/CyclinE, 2 mM ATP (high ATP) IC50 - [mol/l] (median). From the text:
2.4 CDK2/CycE Kinase Assay
CDK2/CycE-inhibitory activity of compounds of the present invention was quantified employing the CDK2/CycE TR-FRET assay as described in the following paragraphs.
Recombinant fusion proteins of GST and human CDK2 and of GST and human CycE, expressed in insect cells (Sf9) and purified by Glutathion-Sepharose affinity chromatography, were purchased from ProQinase GmbH (Freiburg, Germany). As substrate for the kinase reaction biotinylated peptide biotin-Ttds-YISPLKSPYKISEG (C-terminus in amid form) was used which can be purchased e.g. form the company JERINI peptide technologies (Berlin, Germany).
For the assay 50 nanoL of a 100 fold concentrated solution of the test compound in DMSO was pipetted into a black low volume 384 well microtiter plate or a black 1536 well microtiter plate (both Greiner Bio-One, Frickenhausen, Germany), 2 microL of a solution of CDK2/CycE in aqueous assay buffer [50 millimol/L Tris/HCl pH 8.0, 10 millimol/L MgCl2, 1.0 millimol/L dithiothreitol, 0.1 millimol/L sodium ortho-vanadate, 0.01% (v/v) Nonidet-P40 (Sigma)] were added and the mixture was incubated for 15 min at 22° C. to allow pre-binding of the test compounds to the enzyme before the start of the kinase reaction. Then the kinase reaction was started by the addition of 3 microL of a solution of adenosine-tri-phosphate (ATP, 3.33 millimol/L=>final conc. in the 5 microL assay volume is 2 millimol/L) and substrate (1.25 micromol/L=>final conc. in the 5 microL assay volume is 0.75 micromol/L) in assay buffer and the resulting mixture was incubated for a reaction time of 25 min at 22° C. The concentration of CDK2/CycE was adjusted depending of the activity of the enzyme lot and was chosen appropriate to have the assay in the linear range, typical concentrations were in the range of 10 ng/mL. The reaction was stopped by the addition of 3 microL of a solution of TR-FRET detection reagents (0.333 micromol/L streptavidine-XL665 [Cisbio Bioassays, Codolet, France] and 1.67 nanomol/L anti-RB(pSer807/pSer811)-antibody from BD Pharmingen [#558389] and 2 nanomol/L LANCE EU-W1024 labeled anti-mouse IgG antibody [Perkin-Elmer, product no. AD0077, as an alternative a Terbium-cryptate-labeled anti-mouse IgG antibody from Cisbio Bioassays can be used]) in an aqueous EDTA-solution (167 millimol/L EDTA, 0.2% (w/v) bovine serum albumin in 100 millimol/L HEPES pH 7.5).
The resulting mixture was incubated 1 h at 22° C. to allow the formation of complex between the phosphorylated biotinylated peptide and the detection reagents. Subsequently the amount of phosphorylated substrate was evaluated by measurement of the resonance energy transfer from the Eu-chelate to the streptavidine-XL. Therefore, the fluorescence emissions at 620 nm and 665 nm after excitation at 350 nm was measured in a TR-FRET reader, e.g. a Pherastar (BMG Labtechnologies, Offenburg, Germany) or a Viewlux (Perkin-Elmer). The ratio of the emissions at 665 nm and at […] was taken as the measure for the amount of phosphorylated substrate. The data were normalised (enzyme reaction without inhibitor=0% inhibition, all other assay components but no enzyme=100% inhibition).
For orientation: Time-resolved FRET reads energy transfer from a long-lived donor to a nearby acceptor.

`COCCC(C)n1nc(NCc2nc3ccccc3[nH]2)c2ncc(C3CC3)nc21` (single isomer, unassigned; (+)) [Example 59, (+)-N-[(1H-benzimidazol-2-yl)methyl]-6-cyclopropyl-1-[4-methoxybutan-2-yl]-1H-pyrazolo[3,4-b]pyrazin-3-amine]: the IC50 in assay [1] was 248 nM; on CDK2/CyclinE, above 20000 nM.
As for `COCCC(C)n1nc(NCc2nc3ccccc3[nH]2)c2ncc(C3CC3)nc21` (single isomer, unassigned; (-)) [Example 58, (−)-N-[(1H-benzimidazol-2-yl)methyl]-6-cyclopropyl-1-[4-methoxybutan-2-yl]-1H-pyrazolo[3,4-b]pyrazin-3-amine], the IC50 in assay [1] was 28.2 nM; at CDK2/CyclinE it was above 20000 nM.
Turning to `CN1CCC(n2nc(NCc3nc4ccccc4[nH]3)c3ncc(C4CC4)nc32)CC1` [Example 1, N-[(1H-benzimidazol-2-yl)methyl]-6-cyclopropyl-1-(1-methylpiperidin-4-yl)-1H-pyrazolo[3,4-b]pyrazin-3-amine], the IC50 was 13.7 nM in assay [1] (Homo sapiens, MDA-MB-231, 24 h) and above 20000 nM at CDK2/CyclinE.
Take `COc1cccc2[nH]c(CNc3nn(C4CCN(C)CC4)c4nc(C5CC5)cnc34)nc12` [Example 2, 6-cyclopropyl-N-[(4-methoxy-1H-benzimidazol-2-yl)methyl]-1-(1-methylpiperidin-4-yl)-1H-pyrazolo[3,4-b]pyrazin-3-amine]: the IC50 in assay [1] (Homo sapiens, MDA-MB-231, 24 h) was 8.55 nM; at CDK2/CyclinE, above 20000 nM.
In the case of `CN1CCC(n2nc(NCc3nc4c(F)cccc4[nH]3)c3ncc(C4CC4)nc32)CC1` [Example 3, 6-cyclopropyl-N-[(4-fluoro-1H-benzimidazol-2-yl)methyl]-1-(1-methylpiperidin-4-yl)-1H-pyrazolo[3,4-b]pyrazin-3-amine], the IC50 in assay [1] (Homo sapiens, MDA-MB-231, 24 h) is 8.64 nM; on CDK2/CyclinE it was above 20000 nM.
As for `CN1CCC(n2nc(NCc3nc4cc(F)ccc4[nH]3)c3ncc(C4CC4)nc32)CC1` [Example 4, 6-cyclopropyl-N-[(5-fluoro-1H-benzimidazol-2-yl)methyl]-1-(1-methylpiperidin-4-yl)-1H-pyrazolo[3,4-b]pyrazin-3-amine], the IC50 in assay [1] (Homo sapiens, MDA-MB-231, 24 h) is 17.1 nM; on CDK2/CyclinE it was above 20000 nM.
On the same counts, the results for `O=CO.c1ccc(-n2nc(NCc3nc4ccccc4[nH]3)c3ncc(C4CC4)nc32)cc1` [Example 13, formic acid—N-[(1H-benzimidazol-2-yl)methyl]-6-cyclopropyl-1-phenyl-1H-pyrazolo[3,4-b]pyrazin-3-amine (1/1)] are 39 nM and above 20000 nM.
On the same counts, the results for `CC(C)n1nc(NCc2nc3ccccc3[nH]2)c2ncc(C3CC3)nc21` [Example 14, N-[(1H-benzimidazol-2-yl)methyl]-6-cyclopropyl-1-(propan-2-yl)-1H-pyrazolo[3,4-b]pyrazin-3-amine] are 42.9 nM and above 20000 nM.
On the same counts, the results for `Cn1nc(NCc2nc3ccccc3[nH]2)c2ncc(C3CC3)nc21` [Example 15, N-[(1H-benzimidazol-2-yl)methyl]-6-cyclopropyl-1-methyl-1H-pyrazolo[3,4-b]pyrazin-3-amine] are 131 nM and above 20000 nM.
With `CN1CCC(n2nc(NCc3nc4cc(Cl)c(Cl)cc4[nH]3)c3ncc(C4CC4)nc32)CC1` [Example 19, 6-cyclopropyl-N-[(5,6-dichloro-1H-benzimidazol-2-yl)methyl]-1-(1-methylpiperidin-4-yl)-1H-pyrazolo[3,4-b]pyrazin-3-amine], the IC50 in assay [1] (Homo sapiens, MDA-MB-231, 24 h) was 8.59 nM; on CDK2/CyclinE, above 20000 nM.
On the same counts, the results for `CN1CCC(n2nc(NCc3nc4c(Br)cccc4[nH]3)c3ncc(C4CC4)nc32)CC1` [Example 20, N-[(4-bromo-1H-benzimidazol-2-yl)methyl]-6-cyclopropyl-1-(1-methylpiperidin-4-yl)-1H-pyrazolo[3,4-b]pyrazin-3-amine] are 20.6 nM and above 20000 nM.
Regarding `Cc1c(Cl)ccc2[nH]c(CNc3nn(C4CCN(C)CC4)c4nc(C5CC5)cnc34)nc12` [Example 21, N-[(5-chloro-4-methyl-1H-benzimidazol-2-yl)methyl]-6-cyclopropyl-1-(1-methylpiperidin-4-yl)-1H-pyrazolo[3,4-b]pyrazin-3-amine], the IC50 in assay [1] (Homo sapiens, MDA-MB-231, 24 h) was 26.1 nM; at CDK2/CyclinE it was above 20000 nM.
On the same counts, the results for `CN1CCC(n2nc(NCc3nc4cc(Cl)ccc4[nH]3)c3ncc(C4CC4)nc32)CC1` [Example 22, N-[(5-chloro-1H-benzimidazol-2-yl)methyl]-6-cyclopropyl-1-(1-methylpiperidin-4-yl)-1H-pyrazolo[3,4-b]pyrazin-3-amine] are 9.36 nM and above 20000 nM.
On the same counts, the results for `Fc1cccc2[nH]c(CNc3nn(C4CCOCC4)c4nc(C5CC5)cnc34)nc12` [Example 23, 6-cyclopropyl-N-[(4-fluoro-1H-benzimidazol-2-yl)methyl]-1-(oxan-4-yl)-1H-pyrazolo[3,4-b]pyrazin-3-amine] are 30.9 nM and 16400 nM.
Consider `COc1cccc2[nH]c(CNc3nn(C4CCOCC4)c4nc(C5CC5)cnc34)nc12` [Example 24, 6-cyclopropyl-N-[(4-methoxy-1H-benzimidazol-2-yl)methyl]-1-(oxan-4-yl)-1H-pyrazolo[3,4-b]pyrazin-3-amine], for which the IC50 in assay [1] (Homo sapiens, MDA-MB-231, 24 h) is 4.77 nM; on CDK2/CyclinE it was 17900 nM.
Turning to `CN1CCC(n2nc(NCc3nc4cc(C(F)(F)F)ccc4[nH]3)c3ncc(C4CC4)nc32)CC1` [Example 25, 6-cyclopropyl-1-(1-methylpiperidin-4-yl)-N-{[5-(trifluoromethyl)-1H-benzimidazol-2-yl]methyl}-1H-pyrazolo[3,4-b]pyrazin-3-amine], the IC50 in assay [1] (Homo sapiens, MDA-MB-231, 24 h) was 5.88 nM; on CDK2/CyclinE it was above 20000 nM.
Turning to `Cc1c(F)ccc2[nH]c(CNc3nn(C4CCN(C)CC4)c4nc(C5CC5)cnc34)nc12` [Example 26, 6-cyclopropyl-N-[(5-fluoro-4-methyl-1H-benzimidazol-2-yl)methyl]-1-(1-methylpiperidin-4-yl)-1H-pyrazolo[3,4-b]pyrazin-3-amine], the IC50 in assay [1] (Homo sapiens, MDA-MB-231, 24 h) was 20 nM; on CDK2/CyclinE it was above 20000 nM.
On the same counts, the results for `Cc1ccc2[nH]c(CNc3nn(C4CCN(C)CC4)c4nc(C5CC5)cnc34)nc2c1C` [Example 28, 6-cyclopropyl-N-[(4,5-dimethyl-1H-benzimidazol-2-yl)methyl]-1-(1-methylpiperidin-4-yl)-1H-pyrazolo[3,4-b]pyrazin-3-amine] are 16.8 nM and above 20000 nM.
Take `CN1CCC(n2nc(NCc3nc4cc(Cl)c(F)cc4[nH]3)c3ncc(C4CC4)nc32)CC1` [Example 29, N-[(5-chloro-6-fluoro-1H-benzimidazol-2-yl)methyl]-6-cyclopropyl-1-(1-methylpiperidin-4-yl)-1H-pyrazolo[3,4-b]pyrazin-3-amine]: the IC50 was 9.47 nM in assay [1] (Homo sapiens, MDA-MB-231, 24 h) and above 20000 nM at CDK2/CyclinE.
